Values quoted from earlier work in patent publication US6482908B1, “Template-directed ring-closing metathesis and ring-opening metathesis polymerization of functionalized dienes” (California Institute of Technology, priority 1997, dated 2002).

System: cell attachment and spreading

Question: Which “cell adhesion activity of immobilized peptide” value (immobilized onto a poorly adhesive glass substrate) does the source give for “Gly-Arg-Gly-Asp-Tyr (GRGDY; printed: Gly-Arg-Gly-Asp-Tyr) [oligopeptide immobilized onto glass substrate, literature adhesion agent]” here?
Answer: extremely potent adhesion agent

Question: And the “minimum surface density necessary to induce normal cell attachment and spreading” value (peptide immobilized onto poorly adhesive glass substrate, ~140 nm between peptides)?
Answer: 10 fmol/cm^2
